Source: patent publication US20250338846A1, “COMPOSITIONS HAVING PESTICIDAL UTILITY AND PROCESSES RELATED THERETO” (CORTEVA AGRISCIENCE, LLC, priority 2022, published 2025)

Experiments:
Assay type in all cases: in vivo
[1] = system: Sweet Potato Whitefly (Bemisia tabaci, BEMITA); assay: Bioassay 2: Sweet Potato Whitefly, spray on cotton seedlings at crawler emergence, nymphs counted 7-9 days after treatment
Procedure, shortened: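 Cotton seedlings pruned to one true leaf were colonized by adult B. tabaci for 24 h egg-laying, then sprayed once >25% crawler emergence was underway; solutions 0.001% to 0.00000001% (w/v) in acetone/water with 0.025% Tween 20. Held ~25° C; live 2-3 instar nymphs counted 7-9 days later, Abbott-corrected % control.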

[2] = system: Diamondback Moth (Plutella xylostella, PLUTMA); assay: Bioassay 6: Diamondback Moth, artificial lepidopteran diet, live larvae after 5 days; conditions: DBM; F1 alone 0.4 % w/v
Method: (§1) where X=No. of live nymphs on solvent check and Y=No. of live nymphs on treated bean segments. In Table B5 the “Expected % Control” was calculated using the method described in Colby S. R., Weeds, 1967, 15, 20-22. Bioassay 6: Beet Armyworm (Spodoptera exigua, LAPHEG) (BAW), and Diamondback Moth (Plutella xylostella, PLUTMA) (DBM).
Stock solutions were prepared with Formula One as well as for each of the active ingredients individually. Test solutions were prepared from the stock solutions. Test solutions were prepared containing Formula One, the individual active ingredients, and mixtures of Formula One with each of the active ingredients. The test solution for Formula One was prepared by adding 500 μL of the stock solution to a 25 mL glass vial, then adding 500 μL of a 9:1 mixture of acetone: water. The individual active ingredients were prepared by adding 500 μL of stock solution to a 25 mL glass vial, then adding 500 μL of a 9:1 mixture of acetone: water. The test solutions containing mixtures of Formula One and the individual active ingredients were prepared by adding 500 μL of the active ingredient stock solution to a 25 mL glass vial, followed by 500 μL of the Formula One stock solution, creating a test solution containing 4000 ppm Formula One and 0.4% (w/v) of the active ingredient. Each test solution was serially diluted to create desired doses of test solutions (0.4% (w/v), 0.04% (w/v), 0.004% (w/v), 0.0004% (w/v), 0.00004% (w/v), and 0.000004% (w/v)). In test solutions containing mixtures of Formula One and the active ingredients, the active ingredients were diluted as described above, but the Concentration of Formula One was held constant (0.4% (w/v)). The highest dose test solution (0.4% (w/v)) was discarded, leaving 5 test solution concentrations used in the test.
The test solutions were tested against BAW and DBM using the following procedure: An artificial lepidopteran diet (Multispecies Lepidopteran Diet, Southland Products) was distributed in 128-cell bioassay trays (Frontier Agricultural Sciences™). 50 μL of test solution was pipetted into a cell in the bioassay tray. (The test solution doses of 0.04% (w/v), 0.004% (w/v), 0.0004% (w/v), 0.00004% (w/v), and 0.000004% (w/v) translated to concentrations of 5, 0.5, 0.05, 0.005, and 0.0005 ug/cm^2 on the diet, respectively.) A reference treatment (solvent check) was treated with the diluent only. […] After 5 days, the number of live larvae were recorded from each cell and percent control was measured using Abbott's correction formula (W. S. Abbott, J. Econ. Entomol. 18 (1925), pp. 265-267) as follows:
(§2) where X=No. of live larvae on solvent check and Y=No. of live larvae on treated diet. In Table B6 the “Expected % Control” was calculated using the method described in Colby S. R., Weeds, 1967, 15, 20-22. […]

[3] = system: Beet Armyworm (Spodoptera exigua, LAPHEG); assay: Bioassay 6: Beet Armyworm, artificial lepidopteran diet, live larvae after 5 days; conditions: BAW
Method: as §1
Stock solutions were prepared with Formula One as well as for each of the active ingredients individually. Test solutions were prepared from the stock solutions. Test solutions were prepared containing Formula One, the individual active ingredients, and mixtures of Formula One with each of the active ingredients. […]
The test solutions were tested against BAW and DBM using the following procedure: An artificial lepidopteran diet (Multispecies Lepidopteran Diet, Southland Products) was distributed in 128-cell bioassay trays (Frontier Agricultural Sciences™). […] After 5 days, the number of live larvae were recorded from each cell and percent control was measured using Abbott's correction formula (W. S. Abbott, J. Econ. Entomol. 18 (1925), pp. 265-267) as follows:
as §2

## Cc1c(COC(=O)[C@@H]2[C@H](/C=C(\Cl)C(F)(F)F)C2(C)C)cccc1-c1ccccc1 (racemic) [Bifenthrin]
[1]; AI alone 1 (10-5) % w/v
  Average % Control AI: 40%

## CCN(C(=O)CCS(C)(=O)=O)c1sc(-c2cccnc2)nc1Cl [Formula F1, N-(4-chloro-2-(pyridin-3-yl)thiazol-5-yl)-N-ethyl-3-(methylsulfonyl)propanamide]
[2]
  Average % Control F1: 0%
[3]; F1 alone 0.4 % w/v
  Average % Control F1: 0%

## Abamectin
[1]; AI alone 0.1 (10-5) % w/v
  Average % Control AI: 16%
[3]; AI alone, Ratio F1:AI 100:1
  Average % Control AI: 50%

## Emamectin Benzoate
[1]; AI alone 0.1 (10-5) % w/v
  Average % Control AI: 0%
[1]; AI alone 1 (10-5) % w/v
  Average % Control AI: 5%

## CC1(C)[C@H](C(=O)O[C@H](C#N)c2cccc(Oc3ccccc3)c2)[C@@H]1/C=C(\Cl)C(F)(F)F (racemic) [Lambda Cyhalothrin]
[1]; AI alone 1 (10-5) % w/v
  Average % Control AI: 27%

## C/C(=N\C#N)N(C)Cc1ccc(Cl)nc1 [Acetamiprid]
[1]; AI alone 1 (10-5) % w/v
  Average % Control AI: 29%
